Data as given in patent US20240246964A1 (Arbutus Biopharma Corporation, priority 2021, published 2024).

Legend:
[1] = target: PD-L1 His protein / PD-1 Fc protein (Homo sapiens (Human), UniProt Q9NZQ7); test: HTRF Assay (PD-1/PD-L1 interaction); assay type: binding; details: PD-L1 His 6 nM, PD-1 Fc 6 nM
[2] = target: human PD-L1 (Homo sapiens (Human), UniProt Q9NZQ7); test: T cell activation luciferase reporter cell culture system (T Cell Activation Assay); assay type: cell-based; details: luciferase reporter assay; PD-L1 aAPC/CHO-K1 cells with PD-1 effector Jurkat T cells
Sequence of human PD-L1 (Q9NZQ7 19-290): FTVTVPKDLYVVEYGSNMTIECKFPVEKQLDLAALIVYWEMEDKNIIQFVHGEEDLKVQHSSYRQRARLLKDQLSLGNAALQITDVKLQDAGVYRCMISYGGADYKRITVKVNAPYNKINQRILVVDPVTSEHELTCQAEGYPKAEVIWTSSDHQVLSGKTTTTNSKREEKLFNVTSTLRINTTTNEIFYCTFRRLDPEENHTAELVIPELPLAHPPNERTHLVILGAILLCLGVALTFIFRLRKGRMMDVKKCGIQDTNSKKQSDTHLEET

Sequence of PD-L1 His protein / PD-1 Fc protein (Q9NZQ7 19-238): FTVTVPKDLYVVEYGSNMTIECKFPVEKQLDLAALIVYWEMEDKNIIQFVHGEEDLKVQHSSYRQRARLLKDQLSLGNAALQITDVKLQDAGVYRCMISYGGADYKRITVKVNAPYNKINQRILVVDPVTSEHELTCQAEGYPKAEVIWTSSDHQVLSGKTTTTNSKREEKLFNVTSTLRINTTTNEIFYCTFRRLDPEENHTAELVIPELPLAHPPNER

## COc1cc(-c2nccc(-c3cccc(-c4ccc(CNC[C@@H]5CCC(=O)N5)c(OC)n4)c3Cl)c2Cl)cc(F)c1CN1CC2(CC(O)C2)C1 [Compound 146, (S)-5-((((6-(2-chloro-3-(3-chloro-2-(3-fluoro-4-((6-hydroxy-2-azaspiro[3.3]heptan-2-yl)methyl)-5-methoxyphenyl)pyridin-4-yl)phenyl)-2-methoxypyridin-3-yl)methyl)amino)methyl)pyrrolidin-2-one]
[1]
  IC50: 0.77 nM
[2]
  EC50: 61.1 nM

## COCC(=O)N1CCC(NCc2ccc(-c3nccc(-c4cccc(-c5ccc(CNC6CCN(C(C)=O)CC6)c(OC)n5)c4Cl)c3Cl)cc2OC)CC1 [Example 413, 1-(4-((4-(4-(3-(5-(((1-Acetylpiperidin-4-yl)amino)methyl)-6-methoxypyridin-2-yl)-2-chlorophenyl)-3-chloropyridin-2-yl)-2-methoxybenzyl)amino)piperidin-1-yl)-2-methoxyethan-1-one]
[1]
  IC50: 1.45 nM
[2]
  EC50: 16.1 nM

## COc1cc(-c2nccc(-c3cccc(-c4ccc5c(CN(C)C6CCN(C(C)=O)CC6)cn(C)c5n4)c3Cl)c2Cl)ccc1CNC1CCOCC1 [Compound 600, 1-(4-(((6-(2-Chloro-3-(3-chloro-2-(3-methoxy-4-(((tetrahydro-2H-pyran-4-yl)amino)methyl)phenyl)pyridin-4-yl)phenyl)-1-methyl-1H-pyrrolo[2,3-b]pyridin-3-yl)methyl)(methyl)amino)piperidin-1-yl)ethan-1-one]
[1]
  IC50: 0.25 nM
[2]
  EC50: 32.6 nM

## COc1cc(-c2nccc(-c3cccc(-c4ccc5c(CN(C)C6CCN(C(C)=O)CC6)cn(C)c5n4)c3Cl)c2Cl)ccc1CN1CC2(C1)CN(C(C)=O)C2 [Compound 601, 1-(4-(((6-(3-(2-(4-((6-Acetyl-2,6-diazaspiro[3.3]heptan-2-yl)methyl)-3-methoxyphenyl)-3-chloropyridin-4-yl)-2-chlorophenyl)-1-methyl-1H-pyrrolo[2,3-b]pyridin-3-yl)methyl)(methyl)amino)piperidin-1-yl)ethan-1-one]
[1]
  IC50: 0.23 nM
[2]
  EC50: 110 nM

## COc1nc(-c2cccc(-c3ccnc(-c4cnc5c(CNC[C@@H]6CCO6)cn(C)c5c4)c3Cl)c2Cl)ccc1CNC[C@@H]1CCC(=O)N1 [Compound 22, (S)-5-((((6-(2-chloro-3-(3-chloro-2-(1-methyl-3-(((((S)-oxetan-2-yl)methyl)amino)methyl)-1H-pyrrolo[3,2-b]pyridin-6-yl)pyridin-4-yl)phenyl)-2-methoxypyridin-3-yl)methyl)amino)methyl)pyrrolidin-2-one]
[1]
  IC50: 0.3 nM
[2]
  EC50: 135 nM

## COc1cc(-c2nccc(-c3cccc(NC(=O)c4ccc(CNC5CC6(C5)CN(C(C)=O)C6)cn4)c3Cl)c2Cl)ccc1CNC1CC2(C1)CN(C(C)=O)C2 (stereo not shown) [Example 706, 5-(((2-Acetyl-2-azaspiro[3.3]heptan-6-yl)amino)methyl)-N-(3-(2-(4-(((2-acetyl-2-azaspiro[3.3]heptan-6-yl)amino)methyl)-3-methoxyphenyl)-3-chloropyridin-4-yl)-2-chlorophenyl)picolinamide]
[1]
  IC50: 0.2 nM
[2]
  EC50: 72.6 nM

## COCC(=O)N1CCC(NCc2ccc(-c3nccc(-c4cccc(-c5ccc(CNC6CCN(C(=O)COC)CC6)c(OC)n5)c4C(F)(F)F)c3Cl)cc2OC)CC1 [Example 602, 1-(4-(((6-(3-(3-Chloro-2-(3-methoxy-4-(((1-(2-methoxyacetyl)piperidin-4-yl)amino)methyl)phenyl)pyridin-4-yl)-2-(trifluoromethyl)phenyl)-2-methoxypyridin-3-yl)methyl)amino)piperidin-1-yl)-2-methoxyethan-1-one]
[1]
  IC50: 41.3 nM
[2]
  EC50: ≥ 10000 nM

## COc1nc(-c2cccc(-c3ccnc(-c4cc(OC)c5nc(CNC[C@@H]6CCC(=O)N6)cn5c4)c3Cl)c2Cl)ccc1CNC[C@@H]1CCC(=O)N1 [Example 310, (S)-5-((((6-(2-Chloro-3-(3-chloro-2-(8-methoxy-2-(((((S)-5-oxopyrrolidin-2-yl)methyl)amino)methyl)imidazo[1,2-a]pyridin-6-yl)pyridin-4-yl)phenyl)-2-methoxypyridin-3-yl)methyl)amino)methyl)pyrrolidin-2-one]
[1]
  IC50: 1.8 nM
[2]
  EC50: 90.5 nM

## COc1nc(-c2ccnc(-c3cccc4c3CC[C@@H]4Oc3nc(OC)c(CNC[C@@H](C)O)cc3C(F)(F)F)c2Cl)ccc1CNC[C@@H]1CCC(=O)N1 [Compound 165, (S)-5-((((3′-chloro-2′-((S)-1-((5-((( ®-2-hydroxypropyl)amino)methyl)-6-methoxy-3-(trifluoromethyl)pyridine-2-yl)oxy)-2,3-dihydro-1H-inden-4-yl)-6-methoxy-[2,4′-bipyridin]-5-yl)methyl)amino)methyl)pyridine1332ne-2-one]
[1]
  IC50: 0.35 nM
[2]
  EC50: 4.15 nM

## COc1nc(-c2cccc(-c3ccnc(-c4ccc5c(c4)CCCC5NC[C@H](C)O)c3Cl)c2Cl)ccc1CNC[C@@H]1CCC(=O)N1 (mixture of isomers) [Compound 113, (5S)-5-((((6-(2-chloro-3-(3-chloro-2-(5-(((S)-2-hydroxypropyl)amino)-5,6,7,8-tetrahydronaphthalen-2-yl)pyridin-4-yl)phenyl)-2-methoxypyridin-3-yl)methyl)amino)methyl)pyrrolidin-2-one]
[1]
  IC50: 0.7 nM
[2]
  EC50: 185 nM

## COc1cc(-c2nccc(-c3cccc(-c4ccc(CN5CCC(NC(C)=O)CC5)c(OC)n4)c3Cl)c2Cl)ccc1CN1CC2(CNC(=O)C2)C1 [Example 355, N-(1-((6-(2-Chloro-3-(3-chloro-2-(3-methoxy-4-((7-oxo-2,6-diazaspiro[3.4]octan-2-yl)methyl)phenyl)pyridin-4-yl)phenyl)-2-methoxypyridin-3-yl)methyl)piperidin-4-yl)acetamide]
[1]
  IC50: 1.27 nM
[2]
  EC50: 28.7 nM

## COc1nc(-c2cccc(-c3ccnc(-c4ccc5c(CN6CC[C@H](C(=O)O)C6)nn(C)c5c4)c3Cl)c2Cl)ccc1CNC[C@@H]1CCC(=O)N1 [Example 309, (S)-1-((6-(3-Chloro-4-(2-chloro-3-(6-methoxy-5-(((((S)-5-oxopyrrolidin-2-yl)methyl)amino)methyl)pyridin-2-yl)phenyl)pyridin-2-yl)-1-methyl-1H-indazol-3-yl)methyl)pyrrolidine-3-carboxylic acid]
[1]
  IC50: 0.3 nM
[2]
  EC50: 75 nM

## COc1cc(-c2nccc(-c3cccc(-c4ccc(CNC5CCN(C(C)=O)CC5)c(OC)n4)c3Cl)c2Cl)ccc1CN(C)C1CCN(C(C)=O)CC1 [Example 315, 1-(4-(((6-(3-(2-(4-(((1-acetylpiperidin-4-yl)(methyl)amino)methyl)-3-methoxyphenyl)-3-chloropyridin-4-yl)-2-chlorophenyl)-2-methoxypyridin-3-yl)methyl)amino)piperidin-1-yl)ethan-1-one]
[1]
  IC50: 1.54 nM
[2]
  EC50: 28.9 nM

## COc1cc(-c2nccc(-c3ccnc(-c4cc5c(c(OC)c4)CN(C[C@@H]4CCC(=O)N4)CC5)c3Cl)c2Cl)cc2c1CN(C[C@@H]1CCC(=O)N1)CC2 [Compound 266, (5S,5'S)-5,5′-(((3,3′-Dichloro-[4,4′-bipyridine]-2,2′-diyl)bis(8-methoxy-3,4-dihydroisoquinoline-6,2(1H)-diyl))bis(methylene))bis(pyrrolidin-2-one)]
[1]
  IC50: 18.4 nM
[2]
  EC50: 439 nM

## COc1cc(-c2nccc(-c3cccc(-c4ccc(CNC[C@@H]5CCC(=O)N5)c(OC)n4)c3Cl)c2C)ccc1CNC[C@@H]1CCC(=O)N1 [Example 414, (S)-5-((((6-(2-Chloro-3-(2-(3-methoxy-4-(((((S)-5-oxopyrrolidin-2-yl)methyl)amino)methyl)phenyl)-3-methylpyridin-4-yl)phenyl)-2-methoxypyridin-3-yl)methyl)amino)methyl)pyrrolidin-2-one]
[1]
  IC50: 1.58 nM
[2]
  EC50: 29.4 nM

## COc1nc(-c2cccc(-c3ccnc(-c4cc(OC)c5nc(CN6CC7(CCC(=O)N7)C6)cn5c4)c3Cl)c2Cl)ccc1CNC[C@@H]1CCC(=O)N1 [Example 320, (S)-2-((6-(3-Chloro-4-(2-chloro-3-(6-methoxy-5-((((5-oxopyrrolidin-2-yl)methyl)amino)methyl)pyridin-2-yl)phenyl)pyridin-2-yl)-8-methoxyimidazo[1,2-a]pyridin-2-yl)methyl)-2,5-diazaspiro[3.4]octan-6-one]
[1]
  IC50: 0.231 nM
[2]
  EC50: 51.2 nM

## COc1cc(-c2nccc(-c3cccc(-c4ccc(C5=NCCN5)c(OC)n4)c3Cl)c2Cl)ccc1CNC[C@@H](O)CC(=O)O [Compound 180, (S)-4-((4-(3-chloro-4-(2-chloro-3-(5-(4,5-dihydro-1H-imidazol-2-yl)-6-methoxypyridin-2-yl)phenyl)pyridine-2-yl)-2-methoxybenzyl)amino)-3-hydroxybutanoic acid]
[1]
  IC50: 5.64 nM
[2]
  EC50: 35.9 nM

## CNCc1cc(OC)cc(-c2nccc(-c3cccc(-c4ccc(CNC)c(OC)n4)c3Cl)c2Cl)c1 [Compound 155, 1-(6-(2-chloro-3-(3-chloro-2-(3-methoxy-5-((methylamino)methyl)phenyl)pyridin-4-yl)phenyl)-2-methoxypyridin-3-yl)-N-methylmethanamine]
[1]
  IC50: 6.82 nM
[2]
  EC50: ≥ 10000 nM

## COc1cc(-c2nccc(-c3cccc(-c4ccc(CNC5CCN(C(C)=O)CC5)c(OC)n4)c3Cl)c2Cl)ccc1CN[C@@H](CCO)C(=O)O [Example 343, (4-(4-(3-(5-(((1-Acetylpiperidin-4-yl)amino)methyl)-6-methoxypyridin-2-yl)-2-chlorophenyl)-3-chloropyridin-2-yl)-2-methoxybenzyl)-L-homoserine]
[1]
  IC50: 0.09 nM
[2]
  EC50: 248 nM

## COc1nc(-c2cccc(-c3ccnc(-c4ccc5c(CNC[C@H](C)O)cn(C)c5c4)c3Cl)c2Cl)ccc1CNC[C@@H]1CCC(=O)N1 [Compound 35, (S)-5-((((6-(2-chloro-3-(3-chloro-2-(3-((((S)-2-hydroxypropyl)amino)methyl)-1-methyl-1H-indol-6-yl)pyridin-4-yl)phenyl)-2-methoxypyridin-3-yl)methyl)amino)methyl)pyrrolidin-2-one]
[1]
  IC50: 1.1 nM
[2]
  EC50: 855 nM
